Measured values reported in patent publication US8476062B2, “Biosensor method and system based on feature vector extraction” (priority 2005, dated 2013).
Values joined by “and” are separate entries in the source; they are usually repeats but may differ in a detail not shown here. Equal values may be shown once. Read-outs that look alike come from different tables or passages of the source.

Experiments:
[1] = system: Clinch River samples (naturally-occurring photosynthetic organisms); assay: Toxic agent detection by fluorescence induction, Clinch River samples; format: cell-based
Protocol: (§1) Fluorescence induction data set of normal primary-source drinking water samples as well as samples exposed to four different toxic agents at different concentrations were collected. The control and toxic-agent-exposed fluorescence induction data were taken every 5 minutes after the dark adaptation for 15 minutes. • 20 μM DCMU, • 5 mM/10 mM KCN, • 40 μM/60 μM MPt, and • 225 μM Paraquat. Experiment 1—Toxic Agent Detection
(§2) The objective of the first experiment performed was to evaluate the performance of the inventive methodology in detecting the presence of toxic agents. FIGS. 12-23 show the extracted features (including PSII, amplitude statistics, and wavelet coefficient statistical features) of each specific toxic agent as functions of time. The toxic agents were added into the samples at time 0, therefore, the signals with negative time index correspond to the control data and the signals during the positive time period are the agent-exposed data collected from either the Clinch River samples or the lab-grown Chlamydomonas reinhardtii samples. At each time moment, three samples were collected and feature values calculated. The mean and standard deviation of these three values are used to illustrate the performance curve at that time moment. To examine the change of feature values over time, the signal collected at time 0 as reference was chosen and yield at each time moment calculated (feature at time t−feature at time 0)/feature at time 0. The following notations are used to describe these performance curves: • μc(t), σc(t): the mean and the standard deviation of the feature values derived from the three control samples collected at moment t (with a negative time index) • μe(t), σe(t): the mean and the standard deviation of the feature values derived from the three exposure samples collected at moment t (with a positive time index)
(§3) In order to quantitatively evaluate the effectiveness of each feature in differentiating between the control and the exposure signals of different toxic agents, two metrics are introduced: the Fisher criterion and the average confidence level. The Fisher criterion originates from pattern classification (Duda, et al., 2001) where a linear projection is pursued in order to best separate two classes. In this work, the definition of Fisher criterion is used to quantify different performance curves in differentiating between the control and the exposure signals. In general, the Fisher criterion looks for the feature that maximizes the difference between the mean value of feature derived from the control and the exposed signal while minimizing the variance among them, as formulated below: […]
(§4) Table 1 lists the value of the Fisher criterion to evaluate the effect of using different features for agent detection. In both Table 1 and Table 2 “Clinch” refers to Clinch River samples and “Chlamy” to lab-grown Chlamydomonas reinhardtii samples. It can be seen from Table 1 below that the first-order amplitude statistics (mean) gives the best metric evaluation for most of the toxic agents, while the wavelet analysis, the standard deviation and the skewness in amplitude statistics also contribute to the differentiation between control and exposure signals in some cases.

[2] = system: lab-grown Chlamydomonas reinhardtii; assay: Toxic agent detection by fluorescence induction, lab-grown Chlamydomonas reinhardtii samples; format: cell-based
Protocol: as §1, §2, §3, §4

COP(=S)(OC)Oc1ccc([N+](=O)[O-])cc1 [MPt, methyl parathion] was tested, and the “Fisher criterion (control vs exposure signals), Amplitude Statistics Mean” value [1] was 9.9401 and 5.1574, the “Fisher criterion (control vs exposure signals), Wavelet Coefficient Energy” value [1] was 258.6794 and 159.3636 and the “Fisher criterion (control vs exposure signals), Wavelet Coefficient Mean” value [1] was 148.3582 and 75.2339. The “Fisher criterion (control vs exposure signals), Amplitude Statistics Mean” value [2] was 15.3435 and 20.3104, the “Fisher criterion (control vs exposure signals), PSII” value [2] was 7.8844 and 11.7760 and the “Fisher criterion (control vs exposure signals), Wavelet Coefficient Energy” value [2] was 29.3503 and 29.5307. For the same compound, the “Fisher criterion (control vs exposure signals), Wavelet Coefficient Mean” value [2] was 15.7935 and 22.2547.
In the case of CN(C)C(=O)Nc1ccc(Cl)c(Cl)c1 [DCMU, Diuron], the “Fisher criterion (control vs exposure signals), Amplitude Statistics Kurtosis” value ([1]; Clinch, 20 μM DCMU) is reported as 71.3140, the “Fisher criterion (control vs exposure signals), Amplitude Statistics Mean” value ([1]; Clinch, 20 μM DCMU) is reported as 356.4241 and the “Fisher criterion (control vs exposure signals), Amplitude Statistics Skewness” value ([1]; Clinch, 20 μM DCMU) is reported as 64.7360. For the same compound, the “Fisher criterion (control vs exposure signals), PSII” value ([1]; Clinch, 20 μM DCMU) was 62.8073, the “Fisher criterion (control vs exposure signals), Wavelet Coefficient Energy” value ([1]; Clinch, 20 μM DCMU) was 93.8024 and the “Fisher criterion (control vs exposure signals), Wavelet Coefficient Mean” value ([1]; Clinch, 20 μM DCMU) was 37.3350. For the same compound, the “Fisher criterion (control vs exposure signals), Amplitude Statistics Kurtosis” value ([2]; Chlamy, 20 μM DCMU) was 242.9, the “Fisher criterion (control vs exposure signals), Amplitude Statistics Mean” value ([2]; Chlamy, 20 μM DCMU) was 2111.9 and the “Fisher criterion (control vs exposure signals), Amplitude Statistics Skewness” value ([2]; Chlamy, 20 μM DCMU) was 835.9. The “Fisher criterion (control vs exposure signals), PSII” value ([2]; Chlamy, 20 μM DCMU) was 63.9, the “Fisher criterion (control vs exposure signals), Wavelet Coefficient Energy” value ([2]; Chlamy, 20 μM DCMU) was 8.2 and the “Fisher criterion (control vs exposure signals), Wavelet Coefficient Mean” value ([2]; Chlamy, 20 μM DCMU) was 5.3.
With C[n+]1ccc(-c2cc[n+](C)cc2)cc1 [Paraquat] the “Fisher criterion (control vs exposure signals), Amplitude Statistics Kurtosis” value ([1]; Clinch, 225 μM Paraquat) was 13.0980, the “Fisher criterion (control vs exposure signals), Amplitude Statistics Mean” value ([1]; Clinch, 225 μM Paraquat) was 0.6992 and the “Fisher criterion (control vs exposure signals), Amplitude Statistics Skewness” value ([1]; Clinch, 225 μM Paraquat) was 21.8997. The “Fisher criterion (control vs exposure signals), PSII” value ([1]; Clinch, 225 μM Paraquat) was 40.3550, the “Fisher criterion (control vs exposure signals), Wavelet Coefficient Energy” value ([1]; Clinch, 225 μM Paraquat) was 121.8164 and the “Fisher criterion (control vs exposure signals), Wavelet Coefficient Mean” value ([1]; Clinch, 225 μM Paraquat) was 88.1866. The “Fisher criterion (control vs exposure signals), Amplitude Statistics Kurtosis” value ([2]; Chlamy, 225 μM Paraquat) was 0.5380, the “Fisher criterion (control vs exposure signals), Amplitude Statistics Mean” value ([2]; Chlamy, 225 μM Paraquat) was 9.2416 and the “Fisher criterion (control vs exposure signals), Amplitude Statistics Skewness” value ([2]; Chlamy, 225 μM Paraquat) was 0.1661. The “Fisher criterion (control vs exposure signals), PSII” value ([2]; Chlamy, 225 μM Paraquat) was 33.4259, the “Fisher criterion (control vs exposure signals), Wavelet Coefficient Energy” value ([2]; Chlamy, 225 μM Paraquat) was 15.7150 and the “Fisher criterion (control vs exposure signals), Wavelet Coefficient Mean” value ([2]; Chlamy, 225 μM Paraquat) was 7.4516.
